According to PubChem BioAssay AID2060906 (Molecular Pharmacology Branch, DTP, NCI, 2025):

Tested on: 485176-168-R4-J1-PDC complex spheroid growth
Assay: Anticancer human tumor 485176-168-R4-J1-PDC patient-derived pancreatic adenocarcinoma cell line growth inhibition [RAS]
Settings: for IC50: curve of first compound; for viability, T/C: stronger effect = lower value
Summary of the method: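 Agents were tested in combination matrices in half-log decrements from a top concentration at or near clinical Cmax (10 microM if undetermined). Targets were multi-cell spheroids of tumour lines plus HUVEC and MSC stromal cells.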
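Further: spheroids exposed to compounds for seven days before readout.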
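Wherever viability, T/C is given: luminescence viability expressed relative to DMSO vehicle wells set as 100%.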

O=C(c1ccc(F)c(F)c1Nc1ccc(I)cc1F)N1CC(O)([C@@H]2CCCCN2)C1 + CCn1c(-c2cc(N3CCN(C)CC3)cnc2C(C)OC)c2c3cc(ccc31)-c1csc(n1)CC(NC(=O)C1CC1C)C(=O)N1CCCC(N1)C(=O)OCC(C)(C)C2
IC50 (second compound 0.000949 µM): 116 nM
IC50 (second compound 0.003 µM): 90.2 nM
IC50 (second compound 0.00949 µM): 33 nM
IC50 (second compound 0.03 µM): 22.9 nM
IC50 (second compound 0.0949 µM): 14.5 nM
IC50 (second compound 0.3 µM): < 3.16 nM
viability, T/C (second compound 0.000949 µM, first compound 0.00316 µM): 87.1%
viability, T/C (second compound 0.000949 µM, first compound 0.01 µM): 62.7%
viability, T/C (second compound 0.000949 µM, first compound 0.0316 µM): 65.1%
viability, T/C (second compound 0.000949 µM, first compound 0.1 µM): 51%
viability, T/C (second compound 0.000949 µM, first compound 0.316 µM): 43.8%
viability, T/C (second compound 0.000949 µM, first compound 1 µM): 34.1%
viability, T/C (second compound 0.003 µM, first compound 0.00316 µM): 85.9%
viability, T/C (second compound 0.003 µM, first compound 0.01 µM): 75.5%
viability, T/C (second compound 0.003 µM, first compound 0.0316 µM): 63.8%
viability, T/C (second compound 0.003 µM, first compound 0.1 µM): 48.5%
viability, T/C (second compound 0.003 µM, first compound 0.316 µM): 38.8%
viability, T/C (second compound 0.003 µM, first compound 1 µM): 35.2%
viability, T/C (second compound 0.00949 µM, first compound 0.00316 µM): 75.3%
viability, T/C (second compound 0.00949 µM, first compound 0.01 µM): 56.6%
viability, T/C (second compound 0.00949 µM, first compound 0.0316 µM): 51.7%
viability, T/C (second compound 0.00949 µM, first compound 0.1 µM): 45.9%
viability, T/C (second compound 0.00949 µM, first compound 0.316 µM): 36.1%
viability, T/C (second compound 0.00949 µM, first compound 1 µM): 35%
viability, T/C (second compound 0.03 µM, first compound 0.00316 µM): 62.5%
viability, T/C (second compound 0.03 µM, first compound 0.01 µM): 59.3%
viability, T/C (second compound 0.03 µM, first compound 0.0316 µM): 45.2%
viability, T/C (second compound 0.03 µM, first compound 0.1 µM): 38.8%
viability, T/C (second compound 0.03 µM, first compound 0.316 µM): 31.3%
viability, T/C (second compound 0.03 µM, first compound 1 µM): 31.4%
viability, T/C (second compound 0.0949 µM, first compound 0.00316 µM): 65.4%
viability, T/C (second compound 0.0949 µM, first compound 0.01 µM): 56.9%
viability, T/C (second compound 0.0949 µM, first compound 0.0316 µM): 36.5%
viability, T/C (second compound 0.0949 µM, first compound 0.1 µM): 37.2%
viability, T/C (second compound 0.0949 µM, first compound 0.316 µM): 30.9%
viability, T/C (second compound 0.0949 µM, first compound 1 µM): 25.7%
viability, T/C (second compound 0.3 µM, first compound 0.00316 µM): 48.6%
viability, T/C (second compound 0.3 µM, first compound 0.01 µM): 44.4%
viability, T/C (second compound 0.3 µM, first compound 0.0316 µM): 36.6%
viability, T/C (second compound 0.3 µM, first compound 0.1 µM): 28.6%
viability, T/C (second compound 0.3 µM, first compound 0.316 µM): 28.8%
viability, T/C (second compound 0.3 µM, first compound 1 µM): 25.9%
